For one assay, the target named is T1, ADAR1p110-WT (Homo sapiens, UniProt P55265).
T1 construct: made in house; host or cells: Sf9 cells (baculovirus)
T1 sequence (P55265 1-931 isoform P55265-5): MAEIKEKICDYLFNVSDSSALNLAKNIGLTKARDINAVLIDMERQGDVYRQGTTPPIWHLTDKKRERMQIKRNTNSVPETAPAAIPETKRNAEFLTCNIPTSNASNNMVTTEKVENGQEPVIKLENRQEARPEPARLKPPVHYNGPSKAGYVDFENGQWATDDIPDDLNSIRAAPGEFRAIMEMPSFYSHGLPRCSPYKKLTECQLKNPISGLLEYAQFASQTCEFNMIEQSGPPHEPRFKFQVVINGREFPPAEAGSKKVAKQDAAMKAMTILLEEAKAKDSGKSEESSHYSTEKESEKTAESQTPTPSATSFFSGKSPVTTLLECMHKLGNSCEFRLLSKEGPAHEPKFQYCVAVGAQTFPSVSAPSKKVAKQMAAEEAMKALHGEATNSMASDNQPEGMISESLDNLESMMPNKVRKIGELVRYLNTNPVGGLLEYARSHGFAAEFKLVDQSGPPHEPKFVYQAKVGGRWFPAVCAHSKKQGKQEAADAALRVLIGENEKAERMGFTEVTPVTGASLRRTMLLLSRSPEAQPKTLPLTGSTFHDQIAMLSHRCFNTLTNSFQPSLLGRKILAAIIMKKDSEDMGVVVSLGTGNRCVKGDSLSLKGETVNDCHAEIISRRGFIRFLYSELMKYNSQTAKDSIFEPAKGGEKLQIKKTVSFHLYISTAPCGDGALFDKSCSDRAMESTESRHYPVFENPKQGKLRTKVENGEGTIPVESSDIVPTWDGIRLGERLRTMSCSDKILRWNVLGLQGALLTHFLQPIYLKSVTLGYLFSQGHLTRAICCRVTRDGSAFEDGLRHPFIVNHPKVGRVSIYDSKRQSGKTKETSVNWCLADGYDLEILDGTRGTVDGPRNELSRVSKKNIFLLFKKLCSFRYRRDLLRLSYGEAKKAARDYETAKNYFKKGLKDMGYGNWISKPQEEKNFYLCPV
The assay is described as follows: Biacore SPR binding to ADAR1p110-WT. The source says: (§1) FIGS. 5A-5D show Biacore SPR analysis for binding of ADAR1i to ADAR1p110. (FIG. 5A) SPR analysis for binding kinetics of 8 compounds to ADAR1p110-WT. ADAR1 inhibition positive (ADAR1i-13, ADAR1i-120, ADAR1i-124) and negative compounds. (FIG. 5B, FIG. 5C) […] of SPR analysis for binding of ADAR1i-13 and ADAR1i-124 to ADAR1p110-WT and ADAR1p110-E912A as well as negative control proteins, GAPDH and HuR, are shown. […] ADAR1-E912, equivalent of ADAR2 E396, is located in the catalytic center.
(§2) No complete 3-D structure of ADAR1 is currently available. […] The glutamate E912 and E396 in ADAR1 and ADAR2, respectively, plays an important proton transfer function during hydrolytic deamination reaction (42, 43).

A further assay deals with ADAR1p110-E912A (Homo sapiens, UniProt P55265, E912A). The assay is described as follows: Biacore SPR binding to ADAR1p110-E912A mutant.
Sequence of ADAR1p110-E912A (P55265 296-1226 E912A): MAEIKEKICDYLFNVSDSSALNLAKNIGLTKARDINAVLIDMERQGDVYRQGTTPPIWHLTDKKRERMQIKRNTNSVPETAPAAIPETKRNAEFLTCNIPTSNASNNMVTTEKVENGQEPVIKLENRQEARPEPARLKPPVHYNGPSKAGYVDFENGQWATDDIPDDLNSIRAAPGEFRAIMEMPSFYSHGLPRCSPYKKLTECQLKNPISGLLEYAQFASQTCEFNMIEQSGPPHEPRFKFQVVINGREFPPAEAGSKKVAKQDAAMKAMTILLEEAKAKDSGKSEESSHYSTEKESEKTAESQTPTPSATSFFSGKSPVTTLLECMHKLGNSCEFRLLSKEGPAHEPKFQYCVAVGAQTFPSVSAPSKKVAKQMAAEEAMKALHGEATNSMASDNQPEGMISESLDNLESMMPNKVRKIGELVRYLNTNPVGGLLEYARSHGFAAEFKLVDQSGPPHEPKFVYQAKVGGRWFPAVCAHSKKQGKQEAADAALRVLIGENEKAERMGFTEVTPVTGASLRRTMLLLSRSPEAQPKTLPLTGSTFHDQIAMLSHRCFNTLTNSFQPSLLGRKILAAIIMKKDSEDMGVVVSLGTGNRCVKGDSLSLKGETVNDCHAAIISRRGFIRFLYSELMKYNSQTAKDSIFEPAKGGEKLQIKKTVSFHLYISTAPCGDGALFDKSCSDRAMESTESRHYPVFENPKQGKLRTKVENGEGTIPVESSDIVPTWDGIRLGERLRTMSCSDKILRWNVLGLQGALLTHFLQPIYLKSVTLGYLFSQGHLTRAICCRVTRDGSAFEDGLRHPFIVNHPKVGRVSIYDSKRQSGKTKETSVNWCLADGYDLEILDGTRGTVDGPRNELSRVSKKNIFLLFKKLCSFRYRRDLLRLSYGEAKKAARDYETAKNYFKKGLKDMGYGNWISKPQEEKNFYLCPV
Excerpt: as §1, §2
For orientation: SPR reads the build-up and loss of mass on a sensor chip optically.

Another assay has as its target GAPDH (Homo sapiens, UniProt P04406). Description: SPR binding to negative control protein GAPDH.
Excerpt: as §1

The next assay addresses HuR (Homo sapiens, UniProt Q15717). Description: SPR binding to negative control protein HuR.
Excerpt: as §1

A further assay has as its target T2, ADAR2 (Homo sapiens, UniProt P78563).
T2 sequence (P78563 1-741): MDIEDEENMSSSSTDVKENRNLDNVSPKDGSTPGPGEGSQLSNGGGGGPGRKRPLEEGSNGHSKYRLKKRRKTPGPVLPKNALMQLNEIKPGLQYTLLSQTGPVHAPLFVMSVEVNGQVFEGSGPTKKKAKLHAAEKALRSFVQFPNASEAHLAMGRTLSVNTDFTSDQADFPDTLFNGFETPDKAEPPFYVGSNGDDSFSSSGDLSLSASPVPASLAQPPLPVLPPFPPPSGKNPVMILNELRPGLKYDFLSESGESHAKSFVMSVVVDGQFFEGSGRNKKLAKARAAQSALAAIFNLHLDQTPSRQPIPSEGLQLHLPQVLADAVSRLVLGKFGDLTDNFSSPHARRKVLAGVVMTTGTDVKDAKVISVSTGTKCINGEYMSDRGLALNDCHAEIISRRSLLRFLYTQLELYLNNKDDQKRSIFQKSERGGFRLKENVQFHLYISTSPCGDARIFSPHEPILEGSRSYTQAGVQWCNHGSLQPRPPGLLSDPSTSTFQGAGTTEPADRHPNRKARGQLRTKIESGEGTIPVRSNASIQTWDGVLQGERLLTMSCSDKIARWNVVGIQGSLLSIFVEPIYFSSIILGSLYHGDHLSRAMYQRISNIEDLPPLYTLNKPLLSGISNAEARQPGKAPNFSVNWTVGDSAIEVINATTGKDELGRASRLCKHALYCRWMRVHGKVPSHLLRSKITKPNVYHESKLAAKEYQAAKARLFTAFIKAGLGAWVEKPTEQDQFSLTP
The assay is described as follows: Binding to ADAR2 (not shown).

The next assay concerns YUMM1.7. Description: Dose-dependent killing, YUMM1.7. It counts as cell-based. As to conditions: mouse non-ALT cancer cells. On the procedure: (§3) FIGS. 9A-9C show dose-dependent killing of cancer cells and activation of IFN signaling. […] YUMM1.7 (FIG. 9B) and HGS2 cells (FIG. 9C) were treated with ADAR1i-124 at 10 μM (12 hrs). RNA samples were analyzed by qRT-PCR to monitor ISG expression levels. Data: mean±SD (n=3). Significant differences were identified by two-tailed Student's t-tests: ***P<0.001.

The subject of another assay is HSG2. The assay is described as follows: Dose-dependent killing, HSG2. It counts as cell-based. Particulars: mouse non-ALT cancer cells. On the procedure: as §3
For assay [1], the system named is mouse melanoma and ovarian cancer cells. The assay is described as follows: Killing of mouse melanoma and ovarian cancer cells (FIG. 10C). It counts as cell-based. From the text:
(§4) FIGS. 10A-10C show ADAR1i-124 kills cancer cells via different cell death mechanism. (FIG. 10A) Differential expression of ADAR1p150 and ADAR1p110 in cancer cells. […] Annexin V and pMLKL were used as apoptosis and necroptosis markers, respectively. At least 200 cells were examined. Data: mean±SD (n=3). Significant differences were identified by two tailed Student's t-tests: *P<0.05, n.s., not significant. […] We plan to evaluate ADAR1 inhibitors in vivo in mouse tumor model systems by using these mouse cancer cell lines.

The subject of a further assay is YUMM1.7 cells. Description: Cell death mechanism, pMLKL necroptosis marker, YUMM1.7. Type of assay: cell-based, mouse. As to conditions: YUMM1.7, pMLKL marker.
Excerpt: as §4
Thus, ADAR1i-124 has the potential to act as a “two birds with one stone” cancer therapeutic.

SMILES strings stand for the structures. “Also recorded” adds a separate entry of the source.

Here are results for three compounds from US20260272878A1, “ADAR1 INHIBITORS AND USES THEREOF” (THE WISTAR INSTITUTE OF ANATOMY AND BIOLOGY, priority 2023, published 2026).

Sequence of HuR (Q15717 whole entry, species assumed): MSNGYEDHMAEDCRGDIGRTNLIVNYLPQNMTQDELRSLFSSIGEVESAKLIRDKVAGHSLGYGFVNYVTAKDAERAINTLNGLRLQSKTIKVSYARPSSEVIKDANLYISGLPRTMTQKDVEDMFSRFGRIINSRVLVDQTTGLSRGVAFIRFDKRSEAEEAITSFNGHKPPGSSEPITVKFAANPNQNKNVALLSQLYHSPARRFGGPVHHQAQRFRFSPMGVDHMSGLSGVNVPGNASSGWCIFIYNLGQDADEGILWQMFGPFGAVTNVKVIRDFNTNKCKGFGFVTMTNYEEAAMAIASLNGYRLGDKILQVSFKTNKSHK
Sequence of GAPDH (P04406 whole entry, species assumed): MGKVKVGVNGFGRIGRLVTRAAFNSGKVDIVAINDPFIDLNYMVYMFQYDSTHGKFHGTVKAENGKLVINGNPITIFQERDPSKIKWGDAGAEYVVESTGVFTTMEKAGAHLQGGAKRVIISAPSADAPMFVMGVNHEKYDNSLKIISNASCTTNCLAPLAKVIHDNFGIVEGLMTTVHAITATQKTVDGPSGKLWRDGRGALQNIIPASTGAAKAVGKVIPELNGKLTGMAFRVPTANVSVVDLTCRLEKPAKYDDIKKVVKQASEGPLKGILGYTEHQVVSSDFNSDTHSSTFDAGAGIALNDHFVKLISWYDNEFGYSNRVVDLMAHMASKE

Take `N#Cc1ccccc1NC(=O)c1sc2ccccc2c1Cl` [ADAR1i-120]: the “Binding to ADAR1p110-WT” value at ADAR1p110-WT was “direct binding”.
As for `N#Cc1ccc(NC(=O)c2c(Cl)c3ccccc3n2CO)cc1` [ADAR1i-124], the “Binding to ADAR1p110-WT” value on ADAR1p110-WT was “direct binding”. Moreover, the “Binding to ADAR1p110-E912A mutant” value at ADAR1p110-E912A was “a binding kinetics different from that with ADAR1p110-WT”. Moreover, at GAPDH, the “Binding to GAPDH” value is given as “did not bind”. Besides, at HuR, the “Binding to HuR” value is reported as “did not bind”. Moreover, at ADAR2, the “Binding to ADAR2” value is recorded as “bound also to ADAR2”. In the assay on YUMM1.7, the “Killing of YUMM1.7 cells” value is “dose-dependently killed”. Moreover, in the assay with HSG2, the “Killing of HSG2 cells” value is given as “dose-dependently killed”. In addition, the “Killing of mouse melanoma and ovarian cancer cells” value in assay [1] was “dose-dependently and efficiently killed”. Besides, in the assay with YUMM1.7 cells, the Induction of necroptosis result was “induced necroptosis; also recorded: killed via necroptosis”.
In the case of `N#Cc1ccc(NC(=O)c2sc3ccccc3c2Cl)cc1` [ADAR1i-13, 3-chloro-N-(4-cyanophenyl)-1-benzothiophene-2-carboxamide], at ADAR1p110-WT, the “Binding to ADAR1p110-WT” value is “direct binding”. Moreover, on ADAR1p110-E912A, the “Binding to ADAR1p110-E912A mutant” value is recorded as “did not bind”. In addition, at GAPDH, the “Binding to GAPDH” value is reported as “did not bind”. For the same compound, the “Binding to HuR” value at HuR is given as “did not bind”. Also, the “Binding to ADAR2” value on ADAR2 is listed as “bound also to ADAR2”.
